These results are taken from patent US9187472B2 (AbbVie Inc., priority 2012, dated 2015).

In general, IC50 refers to the concentration at which inhibition is half-maximal.

Each structure is given as a SMILES string. A value given as a limit tells only on which side of the number the result lay.

For test [1], the target named is NAMPT (human, recombinant, C-terminally His-tagged) (Homo sapiens, UniProt P43490). As to the kind of experiment: Time-Resolved Fluorescence Resonance Energy Transfer (TR-FRET) Binding Assay of NAMPT. The settings on record: without substrates; 6.8 nM NAMPT, 200 nM probe, 3 hours equilibration. An outline of the steps:
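A TR-FRET probe-displacement assay used 6.8 nM His-tagged recombinant human NAMPT, 200 nM Oregon Green 488-labelled nicotinamide-competitive probe and 1 nM Tb-anti-His antibody. Buffer was HEPES pH 7.5 with NaCl, MgCl2, DTT and glycerol, plus 2% DMSO, equilibrated 3 h at room temperature. Em520/Em495 ratios, normalized to controls, gave IC50 by four-parameter logistic fit.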

The target of another test is NAMPT (Homo sapiens, UniProt P43490). As to the kind of experiment: TR-FRET Binding Assay of NAMPT with PRPP. The settings on record: with 200 μM PRPP and 2.5 mM ATP; 2 nM NAMPT, 2 nM probe, 16 hours equilibration. In outline: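 Human NAMPT (2 nM) with 2 nM probe and 1 nM Tb-anti-His antibody, plus 200 μM PRPP and 2.5 mM ATP, 2% DMSO. TR-FRET read after 16 h equilibration, permitting possible enzymatic modification of test compounds; data processing as for the substrate-free format.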

A further test has as its system PC3 cells. As to the kind of experiment: NAMPT Cell Proliferation Assay. The format is cell-based. The settings on record: Homo sapiens, PC-3, 120 h, 5 days incubation, cell viability by Cell Titer Glo. In outline: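 IC50 values derive from sigmoidal dose-response fits of percent inhibition of PC3 viability, measured by luminescence after 5 days of compound treatment. Cells (500/well, RPMI containing 10% heat-inactivated FBS) are allowed to attach overnight, and compounds are tested at 10-fold dilutions between 10 μM and 1×10^−5 μM.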
In general terms: ATP-based viability assays read luminescence as a measure of living cells.

Chain of NAMPT (P43490 whole entry): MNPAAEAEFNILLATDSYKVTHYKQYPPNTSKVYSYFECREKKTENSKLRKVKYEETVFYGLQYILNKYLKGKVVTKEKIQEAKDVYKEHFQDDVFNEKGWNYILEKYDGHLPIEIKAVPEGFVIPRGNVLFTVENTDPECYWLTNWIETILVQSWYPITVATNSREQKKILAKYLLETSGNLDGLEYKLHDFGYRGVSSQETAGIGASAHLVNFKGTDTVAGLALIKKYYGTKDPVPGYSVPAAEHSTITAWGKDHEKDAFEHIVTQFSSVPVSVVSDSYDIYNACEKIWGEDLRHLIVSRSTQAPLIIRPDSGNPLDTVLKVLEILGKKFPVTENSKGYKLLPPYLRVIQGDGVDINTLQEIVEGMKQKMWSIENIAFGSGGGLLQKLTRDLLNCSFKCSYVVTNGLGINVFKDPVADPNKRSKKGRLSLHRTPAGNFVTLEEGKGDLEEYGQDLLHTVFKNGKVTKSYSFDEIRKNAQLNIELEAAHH
Chain of NAMPT (human, recombinant, C-terminally His-tagged) (P43490 whole entry): as above

In the case of `O=C(NCc1ccc2nccn2c1)c1cnc(N(C[C@H]2CCCO2)C(=O)C2CCOCC2)s1` [Example 147, N-(imidazo[1,2-a]pyridin-6-ylmethyl)-2-{[(2R)-tetrahydrofuran-2-ylmethyl](tetrahydro-2H-pyran-4-ylcarbonyl)amino}-1,3-thiazole-5-carboxamide], the results for the IC50 (in test [1]; at NAMPT; with PC3 cells) were 251 nM, 0.63 nM and 6.69 nM, respectively.
Consider `O=C(CCC(F)(F)F)Nc1ccc(NC(=O)Nc2ccc3nccn3c2)cc1` [Example 45, 4,4,4-trifluoro-N-{4-[(imidazo[1,2-a]pyridin-6-ylcarbamoyl)amino]phenyl}butanamide], for which the values for the half-inhibitory concentration (IC50) (in test [1]; at NAMPT; in the test with PC3 cells) were 879 nM, 1.19 nM and 2070 nM, respectively.
On the same counts, the results for `N#Cc1ccc(C(=O)N2CCC(c3ccc(C(=O)NCc4ccn5ccnc5c4)s3)C2)cc1` (stereo not drawn) [Example 766, 5-[1-(4-cyanobenzoyl)pyrrolidin-3-yl]-N-(imidazo[1,2-a]pyridin-7-ylmethyl)thiophene-2-carboxamide] are 61.5 nM, 0.581 nM and 6.36 nM.
As for `CC(=O)N1CC(Oc2ccc(NC(=O)NCc3ccn4ccnc4c3)cc2)C1` [Example 424, 1-{4-[(1-acetylazetidin-3-yl)oxy]phenyl}-3-(imidazo[1,2-a]pyridin-7-ylmethyl)urea], the IC50 came out at 988 nM in test [1], 0.494 nM on NAMPT and 521 nM in the test with PC3 cells.
On the same counts, the results for `O=C(NCc1ccn2ccnc2c1)c1ccc(C2CCN(C(=O)CC3CCCCC3)C2)cc1` (stereo not drawn) [Example 607, 4-[1-(cyclohexylacetyl)pyrrolidin-3-yl]-N-(imidazo[1,2-a]pyridin-7-ylmethyl)benzamide] are 478 nM, 0.796 nM and 74.4 nM.
On to `O=C(NCc1ccn2ccnc2c1)c1ccc(C2CN(C(=O)c3cccnc3)C2)cc1` [Example 659, N-(imidazo[1,2-a]pyridin-7-ylmethyl)-4-[1-(pyridin-3-ylcarbonyl)azetidin-3-yl]benzamide], for which the IC50 came out at 646 nM in test [1], 0.71 nM at NAMPT and 223 nM in the test on PC3 cells.
In the case of `O=C(NCc1ccn2ccnc2c1)c1ccc(C2CCN(C(=O)C3CC3)CC2)cc1` [Example 531, 4-[1-(cyclopropylcarbonyl)piperidin-4-yl]-N-(imidazo[1,2-a]pyridin-7-ylmethyl)benzamide], the IC50 in test [1] was 333 nM; at NAMPT it was 0.253 nM; in the test with PC3 cells, 52.9 nM.
In the same order, the values of `COCCNC(=O)N(CC1CCOC1)c1ncc(C(=O)NCc2ccc3nccn3c2)s1` (stereo not drawn) [Example 141, N-(imidazo[1,2-a]pyridin-6-ylmethyl)-2-{[(2-methoxyethyl)carbamoyl](tetrahydrofuran-3-ylmethyl)amino}-1,3-thiazole-5-carboxamide] are 2110 nM, 0.757 nM and 77.8 nM.
On the same counts, the results for `CS(=O)(=O)CCn1cc(-c2ccc(C(=O)NCc3ccn4ccnc4c3)s2)cn1` [Example 300, N-(imidazo[1,2-a]pyridin-7-ylmethyl)-5-{1-[2-(methylsulfonyl)ethyl]-1H-pyrazol-4-yl}thiophene-2-carboxamide] are 61.4 nM, 0.169 nM and 28.7 nM.
In the same order, the values of `O=C(NCc1ccn2ccnc2c1)c1ccc(C2CCN(C(=O)c3cccc(C(F)(F)F)c3)CC2)cc1` [Example 702, N-(imidazo[1,2-a]pyridin-7-ylmethyl)-4-{1-[3-(trifluoromethyl)benzoyl]piperidin-4-yl}benzamide] are 568 nM, 1.29 nM and 88 nM.
Turning to `CC[C@H](C)C(=O)N1CC[C@@H](Oc2ccc(C(=O)NCc3ccn4ccnc4c3)cc2)C1` [Example 495, N-(imidazo[1,2-a]pyridin-7-ylmethyl)-4-({(3R)-1-[(25)-2-methylbutanoyl]pyrrolidin-3-yl}oxy)benzamide], the half-inhibitory concentration (IC50) is 1470 nM in test [1], 0.399 nM on NAMPT and 127 nM with PC3 cells.
In the same order, the values of `O=C(NCc1cn2ccnc2cn1)c1ccc(C2CCN(C(=O)c3ccc(F)cc3)CC2)cc1` [Example 812, 4-[1-(4-fluorobenzoyl)piperidin-4-yl]-N-(imidazo[1,2-a]pyrazin-6-ylmethyl)benzamide] are 80 nM, 2.57 nM and 38.8 nM.
In the same order, the values of `O=C(NCc1ccn2ccnc2c1)c1ccc(C(=O)N2CCCCC2)cc1` [Example 566, N-(imidazo[1,2-a]pyridin-7-ylmethyl)-4-(piperidin-1-ylcarbonyl)benzamide] are greater than 10000 nM, 216 nM and greater than 10000 nM.
In the same order, the values of `O=C(NCc1ccn2ccnc2c1)c1ccc(OC2CCN(C(=O)CC3CC3)CC2)cc1` [Example 414, 4-{[1-(cyclopropylacetyl)piperidin-4-yl]oxy}-N-(imidazo[1,2-a]pyridin-7-ylmethyl)benzamide] are 2630 nM, 0.307 nM and 853 nM.
In the case of `O=C(NCc1ccn2ccnc2c1)c1ccc(C2CN(S(=O)(=O)c3ccccc3)C2)cc1` [Example 569, N-(imidazo[1,2-a]pyridin-7-ylmethyl)-4-[1-(phenylsulfonyl)azetidin-3-yl]benzamide], the figures for the IC50 (in test [1]; at NAMPT; in the test on PC3 cells) were 217 nM, 0.669 nM and 226 nM, respectively.
With `C[C@@H]1COC(=O)N1c1ncc(C(=O)NCc2ccn3ccnc3c2)s1` [Example 245, N-(imidazo[1,2-a]pyridin-7-ylmethyl)-2-[(4R)-4-methyl-2-oxo-1,3-oxazolidin-3-yl]-1,3-thiazole-5-carboxamide], the results for the half-inhibitory concentration (IC50) (in test [1]; at NAMPT; in the test with PC3 cells) were 2890 nM, 0.502 nM and 5500 nM, respectively.
Regarding `CC(C)(C)OC(=O)N1CCC(c2ccc(NC(=O)NCc3cn4ccnc4cn3)cc2)CC1` [Example 680, tert-butyl 4-(4-{[(imidazo[1,2-a]pyrazin-6-ylmethyl)carbamoyl]amino}phenyl)piperidine-1-carboxylate], the IC50 in test [1] was 37.1 nM; at NAMPT, 2.38 nM; with PC3 cells it was 629 nM.
Consider `CC(C)(C)OC(=O)N1CCC(c2ccc(NC(=O)NCc3ccn4ccnc4c3)cc2)C1` (stereo not drawn) [Example 302, tert-butyl 3-(4-{[(imidazo[1,2-a]pyridin-7-ylmethyl)carbamoyl]amino}phenyl)pyrrolidine-1-carboxylate], for which the IC50 in test [1] was determined as 160 nM; on NAMPT, 0.435 nM; in the test with PC3 cells it was 19.3 nM.
Turning to `O=C(NCc1ccn2ccnc2c1)Nc1ccc(OC2CN(C(=O)C3COCCO3)C2)cc1` (stereo not drawn) [Example 434, 1-(4-{[1-(1,4-dioxan-2-ylcarbonyl)azetidin-3-yl]oxy}phenyl)-3-(imidazo[1,2-a]pyridin-7-ylmethyl)urea], the results for the IC50 (in test [1]; on NAMPT; in the test with PC3 cells) were 102 nM, 0.169 nM and 5.59 nM, respectively.
`O=C(CC1CCCC1)Nc1ccc(C(=O)NCc2ccn3ncnc3c2)cc1` [Example 546, 4-[(cyclopentylacetyl)amino]-N-([1,2,4]triazolo[1,5-a]pyridin-7-ylmethyl)benzamide]: the results for the concentration for half-maximal inhibition (IC50) (in test [1]; on NAMPT; in the test on PC3 cells) were 237 nM, 23.2 nM and 2450 nM, respectively.
In the same order, the values of `CC(C)(C)C(=O)N1CCC(c2ccc(C(=O)NCc3ccn4ccnc4c3)cc2)C1` (stereo not drawn) [Example 585, 4-[1-(2,2-dimethylpropanoyl)pyrrolidin-3-yl]-N-(imidazo[1,2-a]pyridin-7-ylmethyl)benzamide] are 641 nM, 0.648 nM and 34.6 nM.
In the case of `O=C(NCCCCC1CCN(C(=O)C2COCCO2)CC1)Nc1ccc2nccn2c1` (stereo not drawn) [Example 63, 1-{4-[1-(1,4-dioxan-2-ylcarbonyl)piperidin-4-yl]butyl}-3-imidazo[1,2-a]pyridin-6-ylurea], the IC50 in test [1] came to 636 nM; at NAMPT it was 0.283 nM; with PC3 cells, 16.8 nM.
On the same counts, the results for `O=C(NCc1ccn2ccnc2c1)c1ccc(C2CCN(C(=O)CC3CCOCC3)C2)cc1` (stereo not drawn) [Example 378, N-(imidazo[1,2-a]pyridin-7-ylmethyl)-4-[1-(tetrahydro-2H-pyran-4-ylacetyl)pyrrolidin-3-yl]benzamide] are 897 nM, 0.169 nM and greater than 10000 nM.
Consider `O=C(NCc1ccc2nccn2c1)c1ccc(-c2cnn(CC3CCCO3)c2)s1` (stereo not drawn) [Example 219, N-(imidazo[1,2-a]pyridin-6-ylmethyl)-5-[1-(tetrahydrofuran-2-ylmethyl)-1H-pyrazol-4-yl]thiophene-2-carboxamide], for which the values for the half-inhibitory concentration (IC50) (in test [1]; at NAMPT; in the test on PC3 cells) were 79.4 nM, 0.903 nM and 5.59 nM, respectively.
On the same counts, the results for `O=C(NCc1ccn2ccnc2c1)c1ccc(C2CCN(C(=O)Cc3ccccc3)C2)cc1` (stereo not drawn) [Example 731, N-(imidazo[1,2-a]pyridin-7-ylmethyl)-4-[1-(phenylacetyl)pyrrolidin-3-yl]benzamide] are 223 nM, 0.391 nM and 50 nM.
